Data on 99 molecules can be found in ChEMBL document CHEMBL3507680, “University of Dundee, Gates Library screen for HepG2 cell viability”.

The data set can be described thus: Human HepG2 cell viability assay in 384 well format. The data set is classed as toxicity, cell-based. More on the design: dose 125 nL, time 70.5 hour; cytotoxicity at 70.5 h: concentration not given beside the values. The following applies: HepG2 cells, read-out: Inhibition.
Consider `CNC(=O)N1CCc2cc(C(=O)NCC3CC3)c(NC(C)C)nc2CC1`, for which the cytotoxicity at 70.5 h was -7.34%. Take `O=C(C1CCC1)N1CCC2(COCc3cnc(-c4cccnc4)nc32)C1` (centres undefined): the cytotoxicity at 70.5 h was -3.5%. With `COCC(=O)N1CCC2(COCc3cnc(-c4ccccc4)nc32)C1` (centres undefined), the cytotoxicity at 70.5 h was -3.58%. With `CCS(=O)(=O)N1CCc2onc(CNc3ncccn3)c2C1` the figure was -8.6%. `O=C(CC1CC1)N1CCC2(COCc3cnc(-c4ccccc4)nc32)C1` (centres undefined): the cytotoxicity at 70.5 h is -8.52%. On to `CCCNC(=O)c1nc2c(o1)CN(C(=O)CN(C)C)C2`, for which the cytotoxicity at 70.5 h was -8.52%. As to `Cc1cc(C(=O)N2C[C@@H]3COC[C@]3(c3nnc(C(C)C)o3)C2)on1`, the cytotoxicity at 70.5 h was -9.37%.

For the molecule `CCN(C)c1ncnc2c1CCN(C(=O)c1ccc(C)o1)CC2`, the cytotoxicity at 70.5 h was -11.3%. As for `Cc1nc([C@H]2C[C@H]3CN(C(=O)c4cc(C)c(C)s4)CC[C@@H]3O2)no1`, the cytotoxicity at 70.5 h was -12.1%. For `COCc1cncc2c1CCN(C(=O)c1ccsc1)C2`, the cytotoxicity at 70.5 h was 9.92%. Consider `CCn1ncc2c1C(COC)CN(S(=O)(=O)C1CC1)C2` (centres undefined), for which the cytotoxicity at 70.5 h is -8.31%. As for `CN(C)c1ncc2c(n1)C1(CCN(Cc3cccnc3)C1)COC2` (centres undefined), the figure is 4.89%.

As for `Cc1noc(C)c1CN1CC2(CCN(C(=O)c3cc[nH]n3)C2)CC1=O` (centres undefined), the cytotoxicity at 70.5 h is -6.88%. With `O=C1NC2(CCN(C(=O)c3ccnnc3)CC2)CC1c1ccccc1` (centres undefined) the figure was 22.9%; with `Cc1ccc(Cn2cc(Br)c(NS(C)(=O)=O)n2)cc1`, -5.3%; with `Cc1cccc(Cn2cc(Br)c(NS(C)(=O)=O)n2)c1`, -6.39%. With `CCn1cc(CNC(=O)CC(C)C)cn1`, the cytotoxicity at 70.5 h turned out to be 3.41%. With `COc1cccc(NC(=O)NCc2cnn(C)c2)c1` the figure was -7.74%. With `CCOc1ccc(C(=O)Nc2ccn(CC)n2)cc1` the figure was -1.03%; with `O=C(Cn1nc(C(F)(F)F)c(Br)c1C1CC1)N1CCOCC1`, -5.88%; with `Cc1nn(CCC(=O)NC2CCS(=O)(=O)C2)c(C)c1Br` (centres undefined), -0.845%. As to `O=C(NCCCN1CCOCC1)c1ccn(COc2ccccc2)n1`, the cytotoxicity at 70.5 h was -7.55%.

Consider `O=C(NCCN1CCOCC1)c1ccn(COc2ccc(F)cc2)n1`, for which the cytotoxicity at 70.5 h was -5.85%. With `O=C(NCCCN1CCOCC1)c1ccn(COc2ccc(F)cc2)n1` the figure was -6.88%; with `CC(C(=O)Nc1ccc(Cl)cn1)n1ccc(C(F)(F)F)n1` (centres undefined), 1.33%; with `CC(C(=O)Nc1ccon1)n1ccc(C(F)(F)F)n1` (centres undefined), 15.3%. `Cc1csc(NC(=O)C(C)Oc2ccc3c(c2)OCO3)n1` (centres undefined): the cytotoxicity at 70.5 h was -9.39%. Consider `Cc1nn(Cc2ccc(C(=O)NCCCN3CCOCC3)o2)c(C)c1Cl`, for which the cytotoxicity at 70.5 h turned out to be 24.8%.

`CCC/N=c1/c(NC(=O)NCCOC)c(O)oc2ccccc12`: the cytotoxicity at 70.5 h worked out at 25.8%. As to `Cc1nn(C)cc1CN(C)C(=O)c1ccccn1`, the cytotoxicity at 70.5 h was determined as 1.81%.

Take `Cc1nn(C)cc1CN(C)C(=O)c1ccncc1`: the cytotoxicity at 70.5 h was 2.69%. With `CCn1cc(Cl)c(C(=O)NCCCO)n1` the figure was -3.76%; with `COc1ccc(N2CCN(C(=O)C(C)n3cc(Br)cn3)CC2)cc1` (centres undefined), -1.02%; with `CC1CCN(C(=O)C(C)n2cc(Br)cn2)CC1` (centres undefined), -3.34%.

`Cc1ccc(C(=O)Nc2nn[nH]n2)s1`: the cytotoxicity at 70.5 h was -0.43%. As for `O=C(Nc1cnn(COc2ccc(F)cc2Cl)c1)C1CC1`, the cytotoxicity at 70.5 h stood at 9.89%. Consider `CC(=O)Nc1ccn(Cc2ccccc2)n1`, for which the cytotoxicity at 70.5 h is -12.2%. Consider `COc1cccc(-c2cc(C(=O)NCCCn3nc(C)cc3C)[nH]n2)c1`, for which the cytotoxicity at 70.5 h is -1.83%. With `CSc1[nH]nc(NC(=O)c2ccccc2)c1C#N` the figure was -10%.

For the molecule `CSc1[nH]nc(NC(=O)c2cccnc2)c1C#N`, the cytotoxicity at 70.5 h is -5.13%. For `Cc1nn(Cn2ccc(C(=O)N3CCCC3)n2)c(C)c1Cl`, the cytotoxicity at 70.5 h is -9.33%. As for `Cc1nn(Cn2ccc(C(=O)N3CCCCCC3)n2)c(C)c1Cl`, the figure is -11.3%; as for `CC(Cn1cc(Br)cn1)C(=O)Nc1ccn(C)n1` (centres undefined), 7.88%.

As for `CCCNC(=O)c1nn(CC)cc1NC(=O)c1c(C)nn(C)c1C`, the cytotoxicity at 70.5 h was -11.3%. Regarding `CCn1cc(CNC(=O)c2nn(CC)cc2Br)cn1`, the cytotoxicity at 70.5 h is 8.71%. For `Cc1cc(C(F)(F)F)nn1CC(C)C(=O)Nc1ccccn1` (centres undefined), the cytotoxicity at 70.5 h is -12.5%.

`CCOc1ccc(NC(C)=O)cc1S(=O)(=O)Nc1nnc(C)s1`: the cytotoxicity at 70.5 h was -10.8%. On to `CC(=O)c1cccc(S(=O)(=O)NCCNC(=O)c2snnc2C)c1`, for which the cytotoxicity at 70.5 h came to 7.7%. With `COCCCNC1N=C(n2nc(C)cc2C)Nc2sc3c(c21)CCCC3` (centres undefined) the figure was 8.46%. Regarding `COc1ccc(OC)c(C(C)NC(=O)c2nn(C)c(C)c2Br)c1` (centres undefined), the cytotoxicity at 70.5 h was 27.1%. With `CCCN(C(=O)CCS(=O)(=O)Cc1ccccc1)c1cccc(C)c1` the figure was -4.29%; with `CCn1cc(CN(C)C(=O)c2cc(C(F)(F)F)n(C)n2)cn1`, -7.42%; with `COc1cccc(-c2cc(C(=O)N3N=C(C)CC3(O)C(F)F)[nH]n2)c1` (centres undefined), -11%. With `CCn1ccc(-c2nnc(SCC(=O)NCC(C)C)n2CC)n1`, the cytotoxicity at 70.5 h is -10.3%. `Cc1nn(CCC(=O)N(C)Cc2c(Cl)cnn2C)cc1Br`: the cytotoxicity at 70.5 h was -14.9%. As to `Cn1cc(S(=O)(=O)N2CCN(S(=O)(=O)c3ccc(Br)s3)CC2)cn1`, the cytotoxicity at 70.5 h is -8.9%.

Consider `Cc1nn(CCCNC(=O)C2CCN(S(C)(=O)=O)CC2)cc1Br`, for which the cytotoxicity at 70.5 h is -4.82%. With `O=C(c1ccc(COc2ccc(Cl)cc2)o1)N1N=CCC1(O)C(F)(F)F` (centres undefined) the figure was 10.7%; with `COc1cccc(Cn2cc(N3C(=O)[C@H]4CCCC[C@H]4C3=O)cn2)c1`, 26.3%. With `COC(=O)c1ccnn1COc1ccc(Cl)cc1` the figure was 28.1%; with `Cc1cc(C)cc(OCn2ccc(C(=O)O)n2)c1`, -10.3%; with `Cc1nn(C)c2nc(O)cc(C(F)(F)C(F)(F)F)c12`, 0.0459%. As for `Cn1nc(C(=O)N2CCOCC2)cc1C(=O)Nc1cc(Cl)cc(Cl)c1`, the figure is -0.911%; as for `Cn1c(=O)n(C)c2nc(Cl)c(CC(=O)c3ccccc3)n2c1=O`, -4.74%; as for `CCOc1ccc(N2CCCN=C2NC(=O)c2ccc(OC)cc2)cc1`, -9.82%. Turning to `CN1CC(Oc2ccccc2)=NC(SCC(=O)c2ccccc2)=N1`, the cytotoxicity at 70.5 h is -0.583%.

Turning to `CCC(=O)N1CCN(c2ncnc3cc4c(cc23)OCCO4)CC1`, the cytotoxicity at 70.5 h was -4.42%. `Cc1nc(N2CCN(C(=O)c3ccccn3)CC2)c2c(n1)c(C)nn2C`: the cytotoxicity at 70.5 h was -8.87%. On to `CCC(=O)N1CCN(c2nc(C)nc3c(C)nn(C)c23)CC1`, for which the cytotoxicity at 70.5 h was -6.94%. With `Cc1nn(Cn2ccc(C(=O)N3CCOCC3)n2)c(C)c1Cl`, the cytotoxicity at 70.5 h is -9.86%.

As for `COCCNc1ccc(CC2CCCN(Cc3c[nH]cn3)C2)nn1` (centres undefined), the cytotoxicity at 70.5 h is -0.712%. Turning to `Cc1noc(C)c1C(=O)N1CCCC1(C)C(=O)NC1CCCC1` (centres undefined), the cytotoxicity at 70.5 h was -10.2%. For the molecule `Cc1ccccc1CN1CCCC1c1cncc(Nc2nncs2)n1` (centres undefined), the cytotoxicity at 70.5 h was -13.3%. In the case of `COCC(=O)N1CC(c2ccnc(Nc3cc(C(F)(F)F)ccn3)n2)C1`, the cytotoxicity at 70.5 h is 10.3%. Regarding `CNC(=O)C1(C)CN(c2nc(C)cc(C)n2)CCO1` (centres undefined), the cytotoxicity at 70.5 h came out at 1.44%. As for `CNC(=O)c1cnn2c(C3CCCN3C)ccnc12` (centres undefined), the cytotoxicity at 70.5 h came out at 12.8%.

Consider `CNC(=O)c1cnn2c(C3CCCN3)ccnc12` (centres undefined), for which the cytotoxicity at 70.5 h stood at 6.37%. As to `O=C(CO)N1CCC(c2ccnc(Nc3cc(C(F)(F)F)ccn3)n2)C1` (centres undefined), the cytotoxicity at 70.5 h was -3.68%. Consider `O=C(CCc1cccc(C2CCNCC2)n1)N1CCCCC1`, for which the cytotoxicity at 70.5 h is -12.2%. For the molecule `NCC(=O)N1CCC(c2ccnc(Nc3cc(C(F)(F)F)ccn3)n2)C1` (centres undefined), the cytotoxicity at 70.5 h is 16.8%. As for `O=C(NCc1cncc2c1CCN(Cc1ccccc1)C2)C1CC1`, the figure is 9.59%; as for `CS(=O)(=O)NCc1cncc2c1CCN(CC1CCOC1)C2` (centres undefined), 2.49%. With `Cc1cc(C(=O)N2CCC3(CC2)CC(c2cccnc2)C(=O)N3C)no1` (centres undefined), the cytotoxicity at 70.5 h was determined as 1.74%. In the case of `CCN(C)c1ncnc2c1CCN(C(=O)c1cnccn1)CC2`, the cytotoxicity at 70.5 h is -12.8%. As for `Cc1ccc(CN2CC(C(=O)NCC3CC3)C3(CCOCC3)C2)s1` (centres undefined), the cytotoxicity at 70.5 h was -7.98%. Take `Cc1ccc(CN2CC(C(=O)NC(C)C)C3(CCOCC3)C2)s1` (centres undefined): the cytotoxicity at 70.5 h is -11.4%.

As for `CC(C)N1CCC2(C=C(C(=O)N(C)C)c3ccccc32)CC1`, the cytotoxicity at 70.5 h was -16.2%. With `Cc1ncnc2c1CCN(C(=O)c1ccncc1)CC2`, the cytotoxicity at 70.5 h was found to be 8.77%. As for `CCOCC1CN(S(=O)(=O)N(C)C)Cc2cnn(CC3CC3)c21` (centres undefined), the cytotoxicity at 70.5 h turned out to be 2.18%. In the case of `COc1ccc(CN2CC[C@H]3CO[C@H](CNC(=O)N(C)C)[C@H]3C2)cc1`, the cytotoxicity at 70.5 h is -7.9%. For the molecule `COCC(=O)N1CCC(c2nc3ccc(-c4ccncc4)cn3n2)CC1`, the cytotoxicity at 70.5 h is -6.45%. As to `COCCN1CCC(c2nc3ccc(N4CCCC4)cn3n2)CC1`, the cytotoxicity at 70.5 h was -8.32%.

On to `Cn1nnc2c1C(COCc1ccccn1)CN(C(=O)c1ccsc1)C2` (centres undefined), for which the cytotoxicity at 70.5 h was -6.33%.

With `CC(C)Nc1nc2c(cc1C(=O)NCC1CC1)CCN(C)CC2`, the cytotoxicity at 70.5 h is -8.36%. In the case of `Cc1ccc(CN2CC[C@H]3CO[C@H](CN(C)Cc4ccco4)[C@H]3C2)s1`, the cytotoxicity at 70.5 h stood at 4.82%. In the case of `Cc1nnc(N2C[C@H](Oc3ccccn3)[C@H]3OCCC[C@H]32)s1`, the cytotoxicity at 70.5 h amounted to 8.06%. On to `CCN(CC)CC1CN(Cc2ccc(C)s2)Cc2nccn2C1` (centres undefined), for which the cytotoxicity at 70.5 h was -7.85%. Consider `Cc1cccc(CO[C@H]2CN(c3nnc(C)s3)[C@@H]3CCCO[C@H]23)n1`, for which the cytotoxicity at 70.5 h turned out to be 0.219%.

On to `CCn1[nH]c(C)c2c(C(F)(F)F)cc(=O)nc1-2`, for which the cytotoxicity at 70.5 h is -4.81%.
